Series [1] has as its target T1, JFH1 NS2–3 (NS2 autoprotease) (Hepatitis C virus genotype 2a, UniProt Q99IB8).
T1 construct: (JFH1 polyprotein residues 906–1209, J4 residues 904–1206); His tag (N); made in house; host or cells: E. coli BL21 (DE3) pLysS, pET23a
Kind of series: NS2–3 auto-processing (refolding) assay, JFH1. In kind it is biochemical, Hepatitis C virus genotype 2a isolate JFH1. The following applies: for pEC50: JFH1 NS2–3 refolding reaction, 10-point dose response, NS3-FLAG product quantified by western blot.
Experimental: NS2–3 at 20 μM in 6 M GdnHCl was diluted 1:100 into Refolding buffer (30% glycerol, 0.5% CHAPS, 250 mM NaCl, 3 mM cysteine, 50 μM ZnCl2, 10 mM DTT, 50 mM HEPES–NaOH, pH 7.0) and incubated 16 h RT. Compounds (133 × final concentration in DMSO) were diluted into Refolding buffer before the addition of NS2–3 to yield required final concentrations. Reactions were halted by the addition of ¼ volume 4 × Laemmli buffer (200 mM Tris–HCl pH 6.8, 40% glycerol, 8% SDS, 0.08% bromophenol blue, 20 mM DTT) and analysed by 15% SDS–PAGE and western blot using M2 anti-FLAG monoclonal antibody (Sigma Aldrich) followed by IRDye 680RD Donkey anti-Mouse secondary (LI-COR Biosciences). Imaging and analysis was performed using Odyssey imager (LI-COR Biosciences). Intensity of the 20 kDa proteolysis product (NS3-FLAG) was quantified to calculate 50% effective concentration (EC50) using Prism 6 (GraphPad).
To assess the ability of a small molecule to inhibit NS2 protease activity, an in vitro auto-processing assay was employed. A NS2–NS3 precursor protein (NS2–3) comprising the catalytic C-terminal domain of NS2 and the N-terminal protease domain of NS3 (JFH1 polyprotein residues 906–1209, J4 residues 904–1206) flanked by an N-terminal His tag and C-terminal FLAG tag was bacterially expressed and purified from inclusion bodies under denaturing conditions by immobilised metal ion affinity chromatography (IMAC). Upon dilution into Refolding buffer, NS2–3 forms significant secondary structure ([Foster et al., 2010]) allowing the autoprotease to become active. This can be monitored by western blot analysis of NS2–3 refolding reactions with an anti-FLAG antibody to reveal 35 kDa precursor NS2–3-FLAG and 20 kDa NS3-FLAG, one of the proteolysis products. Quantification of the proteolysis product was used as a relative measure of NS2 autoprotease activity.

The nature of series [2]: Cell viability endpoint assay (Thiazolyl Blue Tetrazolium Bromide). In kind it is cell-based. The following applies: human, Huh7 cells (hepatoma cell line); 72 h incubation, 11-point dose response. On the procedure: (§1) Cellular metabolism was quantified by 2 h incubation in 1 mM Thiazolyl Blue Tetrazolium Bromide (Sigma Aldrich) before crystals were suspended in 100 μl DMSO and absorbance at 570 nm measured using an infinite F50 platereader (Tecan). Data was normalised to DMSO control. CC50 was calculated using Prism 6 (GraphPad).
(§2) In other systems, the requirement of epoxide-based inhibitors to form a transient interaction with the protease before becoming covalently linked allows them greater selectivity and makes them more amenable to in vivo applications ([Powers et al., 2002]). To explore the potential for bis-amido based epoxide warheads to exert an inhibitory effect within a HCV model system, compounds 1–10 and cerulenin were tested for cytotoxic effects by calculating CC50 from 72 h incubation in a hepatoma cell line capable of supporting HCV replication (Supplementary Fig. 2). Of the compounds showing significant activity in vitro only 1 and 7 exerted no significant cytotoxicity up to 100 μM (Table 1).

In series [3] the target is T1, JFH1 NS2–3 (NS2 autoprotease). Details: method as in Pieroni et al., 1997; Thibeault et al., 2001. The following applies: ref Pieroni et al., 1997; Thibeault et al., 2001; cited from earlier work.
The next series deals with Huh7 cells. Kind of series: Cell viability endpoint assay (Thiazolyl Blue Tetrazolium Bromide). The format is cell-based. The following applies: 72 h incubation, 11-point dose response. As to the method:
as §1, §2

Another series deals with SGR-JFH1-NS2-5B. In words: SGR firefly luciferase assay, NS2-dependent JFH1 replicon. The following applies: Telaprevir 150 nM, 48 h. In kind it is cell-based, Hepatitis C virus genotype 2a isolate JFH1. As to the method: (§3) Stable cell lines harbouring SGR (Supplementary material) were maintained in Dulbecco’s modified Eagle’s medium (DMEM; Sigma) supplemented with 10% foetal bovine serum (FBS), 100 IU penicillin ml^−1, 100 μg streptomycin ml^−1, 1% non-essential amino acids and 300 μg/ml G418 (Sigma) in a humidified incubator at 37 °C in 5% CO2. Cells were seeded at a density of 2 × 10^4 cells/well in a 96 well plate. After 16 h media was removed and replaced with media supplemented with the indicated concentrations of compounds with standard DMSO at 0.25%. Plates were incubated in the absence of G418 for a further 48 h.
(§4) Luciferase activity was quantified by addition of 30 μl Passive Lysis Buffer (PLB: Promega) and addition of 40 μl LarI reagent (Promega) using a BMG Labtech plate reader with light emission recorded over 6 s. Data was normalised to DMSO control. Statistical significance was determined using the Student’s t test. […]
(§5) Constructs for HCV SGRs of the genotype 1b Con1 (BM4-5) and genotype 2a JFH1 isolates containing a firefly luciferase – neomycin phosphotransferase fusion protein (ffLuc - NPT) have been previously reported (Wyles et al., 2009, Wyles et al., 2007), into which the relevant NS2 coding sequence was introduced. […] Transcripts were purified by phenol/chloroform extraction and quantified by absorbance at 260 nm. […]
Background: Replicon systems follow genome replication, usually without infectious particles.

In another series the test system is SGR-JFH1-NS3-5B. In words: SGR firefly luciferase assay, NS2-independent JFH1 replicon. The format is cell-based, Hepatitis C virus genotype 2a isolate JFH1. The following applies: Telaprevir 150 nM, 48 h. On the procedure:
as §3, §4, §5

For series [4], the system named is SGR-JFH1-NS2-5B cell line. Kind of series: Cellular metabolism of SGR-JFH1-NS2-5B cell line. The format is cell-based. The following applies: Telaprevir 150 nM, 48 h. As to the method:
as §3, §1

For series [5], the system named is SGR-JFH1-NS3-5B cell line. Kind of series: Cellular metabolism of SGR-JFH1-NS3-5B cell line. The following applies: Telaprevir 150 nM, 48 h. In kind it is cell-based. As to the method: as §3, §1

The structures appear in SMILES notation. pEC50: −log10 of the molar value.

T1 sequence (Q99IB8 906-1209): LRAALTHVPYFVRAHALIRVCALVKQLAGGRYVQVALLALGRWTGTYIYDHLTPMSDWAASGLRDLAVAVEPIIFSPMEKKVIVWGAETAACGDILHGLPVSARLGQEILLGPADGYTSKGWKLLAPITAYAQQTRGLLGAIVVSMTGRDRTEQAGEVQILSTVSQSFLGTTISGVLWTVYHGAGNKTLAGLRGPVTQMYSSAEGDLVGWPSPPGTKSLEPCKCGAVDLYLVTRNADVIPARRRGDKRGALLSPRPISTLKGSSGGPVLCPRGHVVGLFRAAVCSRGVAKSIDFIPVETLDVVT

Broadly, the pEC50 is the negative decadic logarithm of the EC50, by convention in mol/L. A high value points to a low EC50. What is called CC50 is the concentration that lowers cell viability or growth by half. Read a low CC50 as greater toxicity to the cells. The molecule `C/C=C/C/C=C/CCC(=O)[C@H]1O[C@H]1C(N)=O` [Cerulenin] had a pEC50 in series [1] of less than 3.52. For the same molecule, the “Activity against the NS2 autoprotease (in words)” value in series [1] (JFH1 NS2–3 refolding, dose response) is listed as “no activity”. Besides, the CC50 at 72 h in series [2] stood at 31.9 µM.
In the case of `CC(C)C[C@H](NC(=O)[C@H]1O[C@@H]1C(=O)O)C(=O)NCCCCN=C(N)N` [Compound E64], in series [1] (E64 300 μM), the “Inhibition of NS2 autoprotease” value is on record as “not inhibited”. In series [3], the “Activity against the NS2 autoprotease” value was “inactive”.
Take `O=C(O)CN(CCN(CC(=O)O)CC(=O)O)CC(=O)O` [EDTA]: the “Inhibition of NS2 autoprotease activity” value in series [1] (EDTA 10 mM) is recorded as “inhibited”.
`Cc1ccc(S(=O)(=O)N[C@@H](Cc2ccccc2)C(=O)CCl)cc1` [TPCK, Tosyl phenylalanine chloromethyl ketone]: the pEC50 in series [1] was 4.82. This molecule also showed a CC50 in the series with Huh7 cells of 3.3 µM.
`CCC[C@H](NC(=O)[C@@H]1[C@H]2CCC[C@H]2CN1C(=O)[C@@H](NC(=O)[C@@H](NC(=O)c1cnccn1)C1CCCCC1)C(C)(C)C)C(=O)C(=O)NC1CC1` [Telaprevir]: the Luciferase activity result in the series with SGR-JFH1-NS2-5B and in the series with SGR-JFH1-NS3-5B was “comparable reduction” throughout. Moreover, the Cellular metabolism result in series [4] and in series [5] was “no effect” throughout.

(Values after article PMC4398321, “Epoxide based inhibitors of the hepatitis C virus non-structural 2 autoprotease” (Antiviral Research, 2015).)
